Data reported in patent EP0028083A1, “Derivatives of clavulanic acid, a process for their preparation and pharmaceutical compositions containing them” (BEECHAM GROUP PLC, priority 1979, dated 1981).
Values after ≈ are worked out from the molar mass of the structure shown.

Legend:
Assay type in all cases: cell-based
E. coli JT39 [1] = assay: MIC by standard microtitre technique, amoxycillin with and without compound
K. aerogenes E70 = assay: as above
S. aureus Russell = assay: as above
Staph. aureus Russell = assay: MIC by standard microtitre technique, ampicillin with and without inhibitor; conditions: dilution in trytone soy broth
Experimental: (§1) By a standard microtitre technique the MIC values for ampicillin alone, ampicillin and 9-(4-benzyl piperazinyldeoxyclavulanic acid and 9-(4-benzyl)piperazin -1-yldeoxyclavulanic acid alone were determined.

Kleb. aerogenes E70 = assay: as above; conditions: dilution in trytone soy broth
Experimental: as §1

E. coli JT39 [2] = assay: as above; conditions: dilution in trytone soy broth
Experimental: as §1

[3] = Amoxycillin + compound, concentration of inhibitor 1.0 µg/ml
[4] = Amoxycillin + compound, concentration of inhibitor 5.0 µg/ml
[5] = Ampicillin + inhibitor at 1µg/ml
[6] = Ampicillin + inhibitor at 5µg/ml

CC1CN(C/C=C2\O[C@@H]3CC(=O)N3[C@H]2C(=O)O)CC(C)O1 (stereo partly shown) [Example 13, 9-(2,6-DimethyLmorpholino)deoxyclavulanic acid]
MIC (E. coli JT39 [1]; [3]): 31.2 µg/mL | MIC (E. coli JT39 [1]; [4]): 4.0 µg/mL | MIC (K. aerogenes E70; [3]): 6.2 µg/mL | MIC (K. aerogenes E70; [4]): 1.5 µg/mL | MIC (S. aureus Russell; [3]): 1.25 µg/mL | MIC (S. aureus Russell; [4]): 0.3 µg/mL

CC1(C)S[C@@H]2[C@H](NC(=O)[C@H](N)c3ccc(O)cc3)C(=O)N2[C@H]1C(=O)O [Amoxycillin, reference compound]
MIC (E. coli JT39 [1]; Amoxycillin alone): 500 µg/mL (≈ 1370 µM) | MIC (K. aerogenes E70; Amoxycillin alone): 500 µg/mL (≈ 1370 µM) | MIC (S. aureus Russell; Amoxycillin alone): 500 µg/mL (≈ 1370 µM)

O=C(O)[C@H]1/C(=C/CN2CCOCC2)O[C@@H]2CC(=O)N21 [Example 11, 9-(Morpholino)deoxyclavulanic acid]
MIC (E. coli JT39 [1]; [3]): 16.0 µg/mL | MIC (E. coli JT39 [1]; [4]): 4.0 µg/mL | MIC (K. aerogenes E70; [3]): 3.1 µg/mL | MIC (K. aerogenes E70; [4]): 1.5 µg/mL | MIC (S. aureus Russell; [3]): 0.6 µg/mL | MIC (S. aureus Russell; [4]): 0.15 µg/mL

CCOC(=O)N1CCN(C/C=C2\O[C@@H]3CC(=O)N3[C@H]2C(=O)O)CC1 [Example 4, 9-(4-Ethoxycarbonylpiperazin-1-yl)deoxyclavulanic acid]
MIC (E. coli JT39 [1]; [3]): 31.2 µg/mL | MIC (E. coli JT39 [1]; [4]): 4.0 µg/mL | MIC (K. aerogenes E70; [3]): 6.2 µg/mL | MIC (K. aerogenes E70; [4]): 1.5 µg/mL | MIC (S. aureus Russell; [3]): 1.25 µg/mL | MIC (S. aureus Russell; [4]): 0.3 µg/mL

O=C(OCc1ccc([N+](=O)[O-])cc1)[C@H]1/C(=C/CN2CCSCC2)O[C@@H]2CC(=O)N21 [Example 8, p-Nitrobenzyl 9-(thiomorpholino)deoxyclavulanate]
MIC (E. coli JT39 [1]; [3]): 8.0 µg/mL | MIC (E. coli JT39 [1]; [4]): 2.0 µg/mL | MIC (K. aerogenes E70; [3]): 3.1 µg/mL | MIC (K. aerogenes E70; [4]): 1.6 µg/mL | MIC (S. aureus Russell; [3]): 0.62 µg/mL

CC1(C)S[C@@H]2[C@H](NC(=O)[C@H](N)c3ccccc3)C(=O)N2[C@H]1C(=O)O [Ampicillin, ampicillin, reference compound]
MIC (Staph. aureus Russell; Ampicillin alone): 1000 µg/mL (≈ 2860 µM) | MIC (Kleb. aerogenes E70; Ampicillin alone): 1000 µg/mL (≈ 2860 µM) | MIC (E. coli JT39 [2]; Ampicillin alone): >2000 µg/mL

O=C(O)[C@H]1/C(=C/CN2CCN(c3ccccc3)CC2)O[C@@H]2CC(=O)N21 [Example 15, 9-(4-Phenylpiperazin-l-yl)deoxyclavulanic acid]
MIC (E. coli JT39 [1]; [3]): 31.2 µg/mL | MIC (E. coli JT39 [1]; [4]): 4.0 µg/mL | MIC (K. aerogenes E70; [3]): 12.5 µg/mL | MIC (K. aerogenes E70; [4]): 6.2 µg/mL | MIC (S. aureus Russell; [3]): 0.16 µg/mL

O=C(O)[C@H]1/C(=C/CN2CCN(Cc3ccccc3)CC2)O[C@@H]2CC(=O)N21 [Example 2, 9-(4-Benzylpiperazin-1-yl)deoxyclavulanic acid]
MIC (Staph. aureus Russell; [5]): 0.3 µg/mL | MIC (Staph. aureus Russell; [6]): <0.01 µg/mL | MIC (Staph. aureus Russell; Inhibitor alone): 16 µg/mL (≈ 44.8 µM) | MIC (Kleb. aerogenes E70; [5]): 25 µg/mL | MIC (Kleb. aerogenes E70; [6]): 3.1 µg/mL | MIC (Kleb. aerogenes E70; Inhibitor alone): 500 µg/mL (≈ 1400 µM) | MIC (E. coli JT39 [2]; [5]): 62 µg/mL | MIC (E. coli JT39 [2]; [6]): 16 µg/mL | MIC (E. coli JT39 [2]; Inhibitor alone): >500 µg/mL
